These results are taken from PubChem BioAssay (NCI).

Several values for one entry are separate records, joined by “and”; a condition that tells them apart may be missing. Equal entries are not always repeated.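 Where inhibition never reached the appropriate level, the endpoint shown equals the highest concentration tested. Otherwise, values were interpolated linearly from a five-concentration, 48-hour dose response in 96-well plates. Here, GI50 denotes the concentration required for 50% inhibition of growth. At the TGI there is no net growth.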

Among the test systems are HCT-15 colon; NCI-H23 lung; HS 578T breast; K-562 leukemia; RPMI-8226 leukemia; NCI-H226 lung; A498 renal; SNB-75 CNS; NCI/ADR-RES ovarian; MCF7 breast.
Holding throughout (experiment): NCI anticancer screen, dose series, 48 h

With `CCN(CC)CCNc1cc(-c2cccc(OC(F)(F)F)c2)nc2ccc(N3CCCC3)cc12`, the GI50 was 1.46 µM and 1.38 µM and 1.73 µM in the experiment on HCT-15 colon; 1.82 µM and 1.87 µM and 1.89 µM with NCI-H23 lung; 1.59 µM and 1.87 µM and 2.78 µM in the experiment on HS 578T breast; 1.36 µM and 1.8 µM and 2.18 µM with K-562 leukemia; 1.35 µM and 1.6 µM and 1.69 µM in the experiment with RPMI-8226 leukemia; 2.08 µM and 1.76 µM and 2.79 µM with NCI-H226 lung. Also, the GI50 is 1.61 µM and 1.82 µM and 3.42 µM in the experiment on A498 renal; 1.79 µM and 1.74 µM in the experiment on SNB-75 CNS; 1.65 µM and 1.72 µM and 2.18 µM in the experiment on NCI/ADR-RES ovarian; 1.64 µM and 1.45 µM and 1.76 µM in the experiment with MCF7 breast. Besides, the TGI was 3.17 µM and 2.84 µM and 3.71 µM in the experiment with HCT-15 colon; 3.65 µM and 3.72 µM in the experiment with NCI-H23 lung; 3.52 µM and 4.04 µM and 13 µM in the experiment on HS 578T breast; 6.14 µM and 5.09 µM and 5.01 µM in the experiment on K-562 leukemia; 3.54 µM and 3.94 µM and 4.22 µM in the experiment on RPMI-8226 leukemia; 4.26 µM and 3.45 µM and 8.02 µM in the experiment with NCI-H226 lung. The TGI with A498 renal is 6.15 µM and 3.44 µM and 14.9 µM; in the experiment on SNB-75 CNS it was 4.29 µM and 5.78 µM; in the experiment on NCI/ADR-RES ovarian, 3.19 µM and 3.3 µM and 4.53 µM; in the experiment with MCF7 breast, 3.44 µM and 2.9 µM and 3.62 µM.
As to `N#CS.N=C=S.N=C=S.[Cu+2].[NH2-].[NH2-].[NH2-].[NH2-].c1ccc2ncccc2c1`, the GI50 in the experiment on HCT-15 colon is more than 100 µM; with NCI-H23 lung, more than 100 µM; with HS 578T breast, 29.4 µM; in the experiment on K-562 leukemia, more than 100 µM; in the experiment with RPMI-8226 leukemia, more than 100 µM; in the experiment with NCI-H226 lung, 28.3 µM. Further, the GI50 is 28.4 µM in the experiment on A498 renal, 21 µM in the experiment with SNB-75 CNS, more than 100 µM with NCI/ADR-RES ovarian and 18.2 µM with MCF7 breast. The TGI in the experiment on HCT-15 colon is more than 100 µM; in the experiment with NCI-H23 lung, more than 100 µM; in the experiment on HS 578T breast, more than 100 µM; in the experiment with K-562 leukemia it was more than 100 µM; with RPMI-8226 leukemia, more than 100 µM; in the experiment with NCI-H226 lung it was 49.4 µM. For the same molecule, the TGI with A498 renal is 51 µM; with SNB-75 CNS it was 49.9 µM; in the experiment on NCI/ADR-RES ovarian it was more than 100 µM; with MCF7 breast, 35.9 µM.
Take `CCCCCCCCCCCCCCCCOP(=O)(O)OP(=O)(O)OCC1OC(n2ccc(N)nc2=O)C(O)C1O` (stereo unspecified): the TGI in the experiment on HCT-15 colon, in the experiment with NCI-H23 lung, in the experiment on HS 578T breast, with K-562 leukemia, in the experiment with RPMI-8226 leukemia and with NCI-H226 lung was more than 100 µM in each case. Besides, the TGI in the experiment on A498 renal, in the experiment with SNB-75 CNS, in the experiment on NCI/ADR-RES ovarian and with MCF7 breast was more than 100 µM throughout. In addition, the GI50 in the experiment with NCI-H23 lung was > 100 µM and 38 µM; in the experiment on K-562 leukemia, > 100 µM and 41.8 µM; in the experiment on A498 renal it was more than 100 µM; in the experiment with SNB-75 CNS, more than 100 µM; in the experiment with NCI/ADR-RES ovarian, > 100 µM and 13.7 µM; in the experiment with MCF7 breast, > 100 µM and 19.3 µM.
Regarding `COc1cc(-c2ncn(/C=C\C(=O)OC(C)C)n2)cc(C(F)(F)F)c1`, the GI50 in the experiment with HCT-15 colon was 0.0715 µM and 0.0543 µM; in the experiment with NCI-H23 lung, 0.0663 µM and 0.103 µM; in the experiment on HS 578T breast, 0.254 µM and 0.243 µM; in the experiment with K-562 leukemia, 0.051 µM and 0.0608 µM; in the experiment with RPMI-8226 leukemia, 0.036 µM and 0.0286 µM; in the experiment with NCI-H226 lung, 0.0164 µM and 0.031 µM. The GI50 is 0.0364 µM and < 0.0144 µM in the experiment on A498 renal; 0.0748 µM and 0.121 µM in the experiment on SNB-75 CNS; 0.0658 µM and 0.0944 µM with NCI/ADR-RES ovarian; 0.0364 µM and 0.0477 µM in the experiment with MCF7 breast. Besides, the TGI in the experiment on HCT-15 colon was 7.93 µM and 6.39 µM; in the experiment with NCI-H23 lung it was 14.1 µM and 12.1 µM; in the experiment on HS 578T breast, > 65.9 µM and 6.71 µM; in the experiment on K-562 leukemia, 10.2 µM and 16.2 µM; with RPMI-8226 leukemia it was > 36.1 µM and 4.66 µM; in the experiment on NCI-H226 lung, 0.64 µM and 1.66 µM. The TGI is 0.673 µM and 0.0916 µM with A498 renal; 0.999 µM and 0.904 µM in the experiment with SNB-75 CNS; 11.5 µM and 12.7 µM in the experiment with NCI/ADR-RES ovarian; 1.67 µM and 10.4 µM in the experiment with MCF7 breast.
On to `O=C(NCc1ccncc1)C12CC3CC(C1)CC(c1ccc(Cl)cc1)(C3)C2`, for which the GI50 in the experiment with HCT-15 colon was 12.1 µM; in the experiment on NCI-H23 lung it was 14.4 µM; with HS 578T breast it was 12.9 µM; with K-562 leukemia, 6.93 µM; with RPMI-8226 leukemia, 7.59 µM; in the experiment with NCI-H226 lung, 12 µM. For the same molecule, the GI50 with A498 renal was 7.85 µM; in the experiment on SNB-75 CNS, 13.2 µM; in the experiment with NCI/ADR-RES ovarian, 17.2 µM; with MCF7 breast it was 10.2 µM. The TGI was 25.2 µM with HCT-15 colon; 32.7 µM with NCI-H23 lung; 31.7 µM with HS 578T breast; 34.9 µM in the experiment on K-562 leukemia; 71.7 µM with RPMI-8226 leukemia; 31.1 µM with NCI-H226 lung. The TGI is 20.8 µM in the experiment with A498 renal, 27.2 µM in the experiment with SNB-75 CNS, 87.8 µM in the experiment on NCI/ADR-RES ovarian and 27.8 µM in the experiment with MCF7 breast.
`C=C1C(=O)O[C@@H]2C1C[C@@H](O)C(=C)CC/C=C(\C)CCC[C@H](C)[C@H]2OC(C)=O` (stereo partly specified): the GI50 with HCT-15 colon is 3.04 µM; with NCI-H23 lung, 3.71 µM; with HS 578T breast, 10.3 µM; in the experiment with K-562 leukemia, 2.8 µM; with RPMI-8226 leukemia it was 2.52 µM; in the experiment on NCI-H226 lung it was 3.37 µM. For the same molecule, the GI50 in the experiment on A498 renal was 15.3 µM; with SNB-75 CNS, 13.9 µM; with NCI/ADR-RES ovarian, 3.38 µM; with MCF7 breast, 3.04 µM. Also, the TGI in the experiment with HCT-15 colon amounted to 14 µM; in the experiment with NCI-H23 lung, 15 µM; with HS 578T breast, 27.7 µM; in the experiment with K-562 leukemia it was 7.76 µM; in the experiment with RPMI-8226 leukemia it was 6.61 µM; in the experiment with NCI-H226 lung it was 12.8 µM. The TGI in the experiment with A498 renal was found to be 29.4 µM; in the experiment with SNB-75 CNS it was 33.6 µM; with NCI/ADR-RES ovarian, 14.2 µM; with MCF7 breast it was 18.5 µM.
Take `CCCCN(CCCC)CCCn1c(=O)c2c3ccccc3n(C)c2n2nnc(-c3ccccc3)c12`: the GI50 in the experiment on HCT-15 colon is 20.7 µM; in the experiment on NCI-H23 lung it was 13 µM; in the experiment with HS 578T breast it was 39.9 µM; with K-562 leukemia, 13.9 µM; in the experiment on RPMI-8226 leukemia it was 6 µM; in the experiment with NCI-H226 lung, 57 µM. In addition, the GI50 in the experiment on A498 renal was 42.7 µM; in the experiment with SNB-75 CNS it was 15.1 µM; in the experiment on NCI/ADR-RES ovarian it was 14.3 µM; in the experiment with MCF7 breast it was 37.2 µM. In addition, the TGI in the experiment on HCT-15 colon was more than 100 µM; in the experiment with NCI-H23 lung, 62.6 µM; with HS 578T breast, more than 100 µM; in the experiment with K-562 leukemia, more than 100 µM; in the experiment on RPMI-8226 leukemia it was 49.4 µM; in the experiment on NCI-H226 lung it was more than 100 µM. Moreover, the TGI with A498 renal was more than 100 µM; with SNB-75 CNS, 56.2 µM; with NCI/ADR-RES ovarian, 67.7 µM; in the experiment with MCF7 breast it was more than 100 µM.
Take `O=c1oc2ccc(-n3c(=O)c4ccccc4c4ccccc4c3=O)cc2c2ccccc12`: the TGI is more than 100 µM in the experiment with HCT-15 colon; more than 100 µM in the experiment with NCI-H23 lung; 81 µM in the experiment on HS 578T breast; more than 100 µM in the experiment with K-562 leukemia; more than 100 µM in the experiment on RPMI-8226 leukemia; more than 100 µM in the experiment on NCI-H226 lung. Further, the TGI in the experiment on A498 renal is more than 100 µM; in the experiment on SNB-75 CNS, 85.7 µM; in the experiment on NCI/ADR-RES ovarian, more than 100 µM; in the experiment with MCF7 breast it was more than 100 µM.
As for `O=C(Nc1nc2ccc(F)cc2s1)c1cccnc1Nc1ccc(Cl)cc1`, the GI50 was 2.74 µM in the experiment with HCT-15 colon; 1.67 µM in the experiment with NCI-H23 lung; 2.1 µM in the experiment with HS 578T breast; 0.961 µM with K-562 leukemia; 1.24 µM in the experiment with RPMI-8226 leukemia; 2.97 µM in the experiment on NCI-H226 lung. Further, the GI50 in the experiment on A498 renal was 1.8 µM; in the experiment on SNB-75 CNS, 2.36 µM; with NCI/ADR-RES ovarian it was 2.36 µM; with MCF7 breast, 2.32 µM. For the same molecule, the TGI in the experiment on HCT-15 colon was more than 100 µM; with NCI-H23 lung it was 8.38 µM; with HS 578T breast, 7.54 µM; in the experiment on K-562 leukemia, more than 100 µM; with RPMI-8226 leukemia it was 7.47 µM; in the experiment on NCI-H226 lung, more than 100 µM. In addition, the TGI with A498 renal was 5.46 µM; with SNB-75 CNS it was 16.1 µM; in the experiment on NCI/ADR-RES ovarian, more than 28.1 µM; in the experiment with MCF7 breast, more than 100 µM.
